# How the values were obtained:
# [1] = tested on: TH (tyrosine hydroxylase); test: CNS phosphoprotein profile, tyrosine hydroxylase phosphorylation at Ser40 in nucleus accumbens; format: in vivo, mice; details: mouse nucleus accumbens; for effect on tyrosine hydroxylase phosphorylation at Ser40 (in words): 3 mg/kg, 30 minutes or 60 minutes; for increase in TH phosphorylation: haloperidol 2 mg/kg, risperidone dose not given
# Method: (§1) A comprehensive molecular phosphorylation study is also carried out to examine the central nervous system (CNS) profile of the compounds of Example 1 and Example 3. The extent of protein phosphorylation for selected key central nervous system proteins is measured in mice nucleus accumbens.
# (§2) Mice were killed 30 minutes to 2 hours post-injection by focused microwave cranial irradiation, which preserves brain phosphoprotein as it exists at the time of death. Nucleus accumbens was then dissected from each mouse brain, sliced and frozen in liquid nitrogen. Samples were further prepared for phosphoprotein analysis via SDS-PAGE electrophoresis followed by phosphoprotein-specific immunoblotting, as described in Zhu H, et al., Brain Res. 2010 Jun 25; 1342:11-23. Phosphorylation at each site was quantified, normalized to total levels of the protein (non-phosphorylated), and expressed as percent of the level of phosphorylation in vehicle-treated control mice.
# [2] = tested on: GluR1; test: CNS phosphoprotein profile, GluR1 phosphorylation at Ser845 in nucleus accumbens; format: in vivo, mice; details: 3 mg/kg; mouse nucleus accumbens
# Method: as §1, §2
# [3] = tested on: NR2B; test: CNS phosphoprotein profile, NR2B phosphorylation at Tyr1472 in nucleus accumbens; format: in vivo, mice; details: 3 mg/kg; 30-60 minutes; mouse nucleus accumbens
# Method: as §1, §2
# [4] = tested on: 5-HT2 receptor; parameters: species or system mice; details: mouse, in vivo; for block of DOI head twitch (in words): po
# [5] = tested on: ERK2; test: CNS phosphoprotein profile, ERK2 phosphorylation at Thr183 and Tyr185 in nucleus accumbens; format: in vivo, mice; details: 3 mg/kg; mouse nucleus accumbens
# Method: as §1, §2
# [6] = tested on: Mice; test: Mouse marble-burying study (OCD model); format: in vivo; details: for Marbles Buried: of 15 marbles, 30 min
# Text: The marble burying test is used to measure repetitive and anxiety-related behavior in rodents. It is based on the observation that rats and mice will bury either harmful or harmless objects in their bedding, and it has been used as an animal model to measure the effect of pharmacological interventions in treatment of repetitive behavior disorders, such as OCD.
# MPEP is a selective mGluR5 glutamate receptor antagonist. […] Mice in groups (1) are orally administered the vehicle, and mice in group (4) are given an intraperitoneal injection of MPEP just prior to the start of the test.
# The test is conducted in rectangular cages with 4-5 cm of wood chip bedding in a room with the window shades lowered and the door closed to minimize distractions. Fifteen clean marbles are evenly spaced on top of the bedding in three rows of five marbles. One mouse is placed in each cage. The mouse and cage is left undisturbed for 30 minutes. At the end of the test, the mouse is removed and the number of marbles buried to at least ⅔ of their depth is counted.
# [7] = target: Mu opiate receptor (Homo sapiens, UniProt P35372); format: binding
# Sequence of Mu opiate receptor (P35372 whole entry): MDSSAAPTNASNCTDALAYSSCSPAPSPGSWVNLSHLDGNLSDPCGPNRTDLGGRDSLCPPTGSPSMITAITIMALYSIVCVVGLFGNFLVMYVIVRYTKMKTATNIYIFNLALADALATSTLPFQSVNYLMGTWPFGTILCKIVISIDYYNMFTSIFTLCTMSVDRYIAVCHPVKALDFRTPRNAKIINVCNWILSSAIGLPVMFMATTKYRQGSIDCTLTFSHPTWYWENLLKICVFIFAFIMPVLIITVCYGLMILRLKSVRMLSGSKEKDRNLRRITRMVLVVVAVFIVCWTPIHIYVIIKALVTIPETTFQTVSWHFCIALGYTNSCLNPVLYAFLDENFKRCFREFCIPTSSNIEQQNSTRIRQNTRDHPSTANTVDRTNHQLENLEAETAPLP
compound,measurement,setting,value
"O=C1CN2c3c(cccc3[C@@H]3CN(CCCC(=O)c4ccc(F)cc4)CC[C@@H]32)N1 [Example 1, 4-((6bR,10aS)-2-Oxo-2,3,6b,9,10,10a-Hexahydro-1H,7H-Pyrido[3′,4′:4,5]Pyrrolo[1,2,3-De]Quinoxalin-8-Yl)-1-(4-Fluoro-Phenyl)-Butan-1-One]",effect on tyrosine hydroxylase phosphorylation at Ser40 (in words),[1],neither the compound of Example 1 nor of Example 3 has a significant effect
same,effect on GluR1 phosphorylation at Ser845 (in words),[2],slight increase
same,effect on NR2B phosphorylation at Tyr1472 (in words),[3],neither the compound of Example 1 nor of Example 3 has a significant effect
same,EC50 for reducing DOI-induced head twitches,[4],"0.23 mg/kg, p.o."
same,block of DOI head twitch (in words),[4],potently block DOI head twitch
same,effect on ERK2 phosphorylation at Thr183 and Tyr185 (in words),[5],slight decrease
"O=C1CN2c3c(cccc3[C@@H]3CN(CCCOc4ccc(F)cc4)CC[C@@H]32)N1 [Example 3, (6bR,10aS)-8-(3-(4-Fluorophenoxy)Propyl)-6b,7,8,9,10,10a-Hexahydro-1H-Pyrido[3′,4′:4,5]Pyrrolo[1,2,3-De]Quinoxalin-2(3H)-One]",Marbles Buried,[6]; 0.3 mg/kg orally 30 minutes prior to the test,9.3
same,decrease in marble burying compared to the control (in words),"[6]; 0.3 mg/kg, p <0.01",statistically significant decrease
same,effect on tyrosine hydroxylase phosphorylation at Ser40 (in words),[1],neither the compound of Example 1 nor of Example 3 has a significant effect
same,effect on GluR1 phosphorylation at Ser845 (in words),[2],slight increase
same,effect on NR2B phosphorylation at Tyr1472 (in words),[3],neither the compound of Example 1 nor of Example 3 has a significant effect
same,EC50 for reducing DOI-induced head twitches,[4],"0.44 mg/kg, p.o."
same,block of DOI head twitch (in words),[4],potently block DOI head twitch
same,effect on ERK2 phosphorylation at Thr183 and Tyr185 (in words),[5],slight decrease
"CN1CCN2c3c(cccc31)[C@@H]1CN(CCCC(=O)c3ccc(F)cc3)CC[C@@H]12 [Formula A, reference compound]",activity at the Mu opiate receptor (in words),[7],not active
"CN1CCN2c3c(cccc31)[C@@H]1CN(CCCC(O)c3ccc(F)cc3)CC[C@@H]12 (stereo partly shown) [Formula B, reference compound]",EC50 for reducing DOI-induced head twitches,[4],"0.31 mg/kg, p.o."
"Cc1cccc(C#Cc2ccccc2)n1 [MPEP, 2-methyl-6-(phenylethynyl)pyridine, reference compound]",Marbles Buried,[6]; 20 mg/kg intraperitoneal just prior to the test,0.2
"O=C(CCCN1CCC(O)(c2ccc(Cl)cc2)CC1)c1ccc(F)cc1 [haloperidol, reference compound]",increase in TH phosphorylation,[1],greater than 400%
"Cc1nc2n(c(=O)c1CCN1CCC(c3noc4cc(F)ccc34)CC1)CCCC2 [risperidone, reference compound]",increase in TH phosphorylation,[1],greater than 500%
